Data published in patent US20210032257A1, “(E)-1-(4-(DIMETHYLAMINO)BUT-2-ENOYL)PYRROLIDIN-3-YL 4-((3-ISOPROPYL-5-METHYLPYRAZOLO[1,5-A]PYRIMIDIN-7-YL)AMINO)PIPERIDINE-1-CARBOXYLATE FOR INHIBITING CDK7” (Eli Lilly and Company, priority 2017, published 2021).

Tests used:
Experiment in all cases: Biomarker study proliferation (CellTiter-Glo)
Assay type in all cases: cell-based
[1] = test system: NCIH2081
In short: (§1)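 IC50 and % inhibition define three classes: insensitive at IC50≥1 μM; cytostatic at IC50<1 μM with <70% inhibition; cytotoxic at IC50<1 μM with ≥70% inhibition. Values come from 7-day CellTiter-Glo readings.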

[2] = test system: NIHOVCAR3
In short: as §1

[3] = test system: T84
In short: as §1

[4] = test system: NCIH2347
In short: as §1

[5] = test system: KPL1
In short: as §1

[6] = test system: TEK1
In short: as §1

[7] = test system: 22RV1
In short: as §1

[8] = test system: MX1
In short: as §1

[9] = test system: NCIH1975
In short: as §1

[10] = test system: NCIH1299
In short: as §1

[11] = test system: TOV112D
In short: as §1

[12] = test system: NCIH446
In short: as §1

[13] = test system: MHCC97L
In short: as §1

[14] = test system: NCIH522
In short: as §1

[15] = test system: MDAPCA2B
In short: as §1

[16] = test system: HCC1143
In short: as §1

[17] = test system: U118MG
In short: as §1

[18] = test system: LI7
In short: as §1

[19] = 168 h, read-out: Anti-proliferation effect IC50

Cc1cc(NC2CCN(C(=O)O[C@H]3CCN(C(=O)/C=C/CN(C)C)C3)CC2)n2ncc(C(C)C)c2n1 [Example 1, [(3S)-1-[(E)-4-(dimethylamino)but-2-enoyl]pyrrolidin-3-yl] 4-[(3-isopropyl-5-methyl-pyrazolo[1,5-a]pyrimidin-7-yl)amino]piperidine-1-carboxylate]
IC50 ([1]; Homo sapiens, NCI-H2081, 168 h, read-out: Anti-proliferation effect IC50): 442 nM
Anti-proliferation effect % Inh. ([1]; NCIH2081, LUNG, 7 days): 44%
Anti-proliferation effect Outcome ([1]; NCIH2081, LUNG, 7 days): Cytostatic (cytostatic (IC50<1 μM and % inhibition <70%))
IC50 ([2]; Homo sapiens, OVCAR-3, 168 h, read-out: Anti-proliferation effect IC50): 40 nM
Anti-proliferation effect % Inh. ([2]; NIHOVCAR3, OVARY, 7 days): 96%
Anti-proliferation effect Outcome ([2]; NIHOVCAR3, OVARY, 7 days): Cytotoxic (cytotoxic (IC50<1 μM and % inhibition ≥70%))
IC50 ([3]; Homo sapiens, T84, 168 h, read-out: Anti-proliferation effect IC50): 308 nM
Anti-proliferation effect % Inh. ([3]; T84, INTESTINE, 7 days): 61%
Anti-proliferation effect Outcome ([3]; T84, INTESTINE, 7 days): Cytostatic (cytostatic (IC50<1 μM and % inhibition <70%))
IC50 ([4]; Homo sapiens, NCI-H2347, 168 h, read-out: Anti-proliferation effect IC50): 661 nM
Anti-proliferation effect % Inh. ([4]; NCIH2347, LUNG, 7 days): 45%
Anti-proliferation effect Outcome ([4]; NCIH2347, LUNG, 7 days): Cytostatic (cytostatic (IC50<1 μM and % inhibition <70%))
Anti-proliferation effect % Inh. ([5]; KPL1, BREAST, 7 days): 43%
Anti-proliferation effect Outcome ([5]; KPL1, BREAST, 7 days): Cytostatic (cytostatic (IC50<1 μM and % inhibition <70%))
IC50 ([5]; KPL-1, 168 h, read-out: Anti-proliferation effect IC50): 668 nM
IC50 [6, 19]: 40 nM
Anti-proliferation effect % Inh. ([6]; TEK1, BILIARY, 7 days): 87%
Anti-proliferation effect Outcome ([6]; TEK1, BILIARY, 7 days): Cytotoxic (cytotoxic (IC50<1 μM and % inhibition ≥70%))
Anti-proliferation effect % Inh. ([7]; 22RV1, PROSTATE, 7 days): 77%
Anti-proliferation effect Outcome ([7]; 22RV1, PROSTATE, 7 days): Cytotoxic (cytotoxic (IC50<1 μM and % inhibition ≥70%))
IC50 ([7]; Homo sapiens, 22Rv1, 168 h, read-out: Anti-proliferation effect IC50): 28 nM
IC50 ([8]; Homo sapiens, MX1, 168 h, read-out: Anti-proliferation effect IC50): 45 nM
Anti-proliferation effect % Inh. ([8]; MX1, BREAST, 7 days): 72%
Anti-proliferation effect Outcome ([8]; MX1, BREAST, 7 days): Cytotoxic (cytotoxic (IC50<1 μM and % inhibition ≥70%))
IC50 ([9]; Homo sapiens, NCI-H1975, 168 h, read-out: Anti-proliferation effect IC50): 21 nM
Anti-proliferation effect % Inh. ([9]; NCIH1975, LUNG, 7 days): 90%
Anti-proliferation effect Outcome ([9]; NCIH1975, LUNG, 7 days): Cytotoxic (cytotoxic (IC50<1 μM and % inhibition ≥70%))
IC50 ([10]; Homo sapiens, NCI-H1299, 168 h, read-out: Anti-proliferation effect IC50): 195 nM
Anti-proliferation effect % Inh. ([10]; NCIH1299, LUNG, 7 days): 44%
Anti-proliferation effect Outcome ([10]; NCIH1299, LUNG, 7 days): Cytostatic (cytostatic (IC50<1 μM and % inhibition <70%))
IC50 ([11]; Homo sapiens, 168 h, read-out: Anti-proliferation effect IC50): 25 nM
Anti-proliferation effect % Inh. ([11]; OVARY, 7 days): 81%
Anti-proliferation effect Outcome ([11]; OVARY, 7 days): Cytotoxic (cytotoxic (IC50<1 μM and % inhibition ≥70%))
IC50 ([12]; Homo sapiens, NCI-H446, 168 h, read-out: Anti-proliferation effect IC50): 13 nM
Anti-proliferation effect % Inh. ([12]; NCIH446, LUNG, 7 days): 95%
Anti-proliferation effect Outcome ([12]; NCIH446, LUNG, 7 days): Cytotoxic (cytotoxic (IC50<1 μM and % inhibition ≥70%))
IC50 [13, 19]: 526 nM
Anti-proliferation effect % Inh. ([13]; LIVER, 7 days): 45%
Anti-proliferation effect Outcome ([13]; LIVER, 7 days): Cytostatic (cytostatic (IC50<1 μM and % inhibition <70%))
IC50 ([14]; Homo sapiens, NCI-H522, 168 h, read-out: Anti-proliferation effect IC50): 107 nM
Anti-proliferation effect % Inh. ([14]; NCIH522, LUNG, 7 days): 50%
Anti-proliferation effect Outcome ([14]; NCIH522, LUNG, 7 days): Cytostatic (cytostatic (IC50<1 μM and % inhibition <70%))
IC50 ([15]; MDA-PCa-2b, 168 h, read-out: Anti-proliferation effect IC50): 6270 nM
Anti-proliferation effect % Inh. ([15]; MDAPCA2B, PROSTATE, 7 days): 17%
Anti-proliferation effect Outcome ([15]; MDAPCA2B, PROSTATE, 7 days): Insensitive (insensitive (IC50≥1 μM))
Anti-proliferation effect % Inh. ([16]; HCC1143, BREAST, 7 days): 37%
Anti-proliferation effect Outcome ([16]; HCC1143, BREAST, 7 days): Insensitive (insensitive (IC50≥1 μM))
IC50 ([16]; Homo sapiens, HCC1143, 168 h, read-out: Anti-proliferation effect IC50): > 10000 nM
IC50 ([17]; Homo sapiens, U-118-MG, 168 h, read-out: Anti-proliferation effect IC50): 1170 nM
Anti-proliferation effect % Inh. ([17]; U118MG, CNS, 7 days): 42%
Anti-proliferation effect Outcome ([17]; U118MG, CNS, 7 days): Insensitive (insensitive (IC50≥1 μM))
Anti-proliferation effect % Inh. ([18]; LI7, LIVER, 7 days): 76%
Anti-proliferation effect Outcome ([18]; LI7, LIVER, 7 days): Cytotoxic (cytotoxic (IC50<1 μM and % inhibition ≥70%))
IC50 ([18]; Li-7, 168 h, read-out: Anti-proliferation effect IC50): 132 nM
